The results in this text go back to ChEMBL document CHEMBL3217559, “Monocyte and macrophage selective anti-inflammatory kinase inhibitors” (Medchemcomm, 2012).

What is called IC50 is the concentration needed to halve the response being measured. The low end stands for higher potency, the high end for lower potency.

The target of data set [1] is T1, MAP kinase p38 (Homo sapiens, UniProt O15264+Q15759+Q16539+P53778). The experiment in a line: Inhibition of p38 MAP kinase-mediated MAPKAPK2 phosphorylation in human U937 cells after 4 hrs by chemiluminescence assay. As to conditions: u-937. In kind it is cell-based.
In data set [2] the target is T1, MAP kinase p38. The experiment in a line: Inhibition of p38 MAP kinase-mediated MAPKAPK2 phosphorylation in human Hut78 cells after 4 hrs by chemiluminescence assay. In kind it is cell-based.
The target of data set [3] is Mitogen-activated protein kinase 14 (Homo sapiens, UniProt Q16539). The data set is described as follows: Inhibition of p38 MAP kinase alpha (unknown origin) after 1 hr by Z'-lyte assay.
In a further data set the test system is Blood. The data set is described as follows: Inhibition of LPS-induced TNFalpha production in human whole blood. It counts as functional, tissue-based.
The test system of another data set is THP-1. The experiment in a line: Inhibition of LPS-induced TNFalpha production in human THP1 cells. It counts as functional, cell-based.
Data set [4] has as its target T2, Liver carboxylesterase 1 (Homo sapiens, UniProt P23141).
T2 sequence (P23141 whole entry): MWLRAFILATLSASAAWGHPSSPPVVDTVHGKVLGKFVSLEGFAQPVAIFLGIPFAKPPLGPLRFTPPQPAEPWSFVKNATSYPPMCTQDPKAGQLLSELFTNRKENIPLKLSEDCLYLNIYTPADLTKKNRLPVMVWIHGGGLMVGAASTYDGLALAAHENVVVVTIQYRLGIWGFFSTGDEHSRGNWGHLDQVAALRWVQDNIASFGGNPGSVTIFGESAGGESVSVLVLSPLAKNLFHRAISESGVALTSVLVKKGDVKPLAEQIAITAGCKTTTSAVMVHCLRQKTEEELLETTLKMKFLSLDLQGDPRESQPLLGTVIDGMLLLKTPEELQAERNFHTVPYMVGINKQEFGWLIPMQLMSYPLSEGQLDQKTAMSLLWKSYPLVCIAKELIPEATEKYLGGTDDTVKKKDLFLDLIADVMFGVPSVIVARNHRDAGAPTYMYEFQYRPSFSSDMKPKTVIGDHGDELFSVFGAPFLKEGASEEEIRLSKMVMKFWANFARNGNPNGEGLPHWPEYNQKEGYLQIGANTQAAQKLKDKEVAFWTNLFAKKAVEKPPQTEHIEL
The experiment in a line: Drug metabolism in intact human U937 cells assessed as human CE1-mediated N-[2-(4-{6-Amino-5-[(2,4-difluorophenyl)carbonyl]-2-oxopyridin-1(2H)-yl}-3,5 difluorophenyl)ethyl]-L-leucine formation per million cells at 2.5 uM after 6 hrs by LC/MS/MS analysis. It counts as ADME, cell-based. As to conditions: u-937, 6 h.

Data set [5] deals with HuT78. The experiment in a line: Drug metabolism in human HUT78 cell lysate assessed as N-[2-(4-{6-Amino-5-[(2,4-difluorophenyl)carbonyl]-2-oxopyridin-1(2H)-yl}-3,5 difluorophenyl)ethyl]-L-leucine formation at 2.5 uM after 10 to 80 mins by LC/MS/MS analysis. It counts as ADME, cell-based. As to conditions: hut78, 2.5 µM.
Data set [6] deals with T2, Liver carboxylesterase 1. The experiment in a line: Drug metabolism in human U937 cell lysate assessed as human CE1-mediated N-[2-(4-{6-Amino-5-[(2,4-difluorophenyl)carbonyl]-2-oxopyridin-1(2H)-yl}-3,5 difluorophenyl)ethyl]-L-leucine formation at 2.5 uM after 10 to 80 mins by LC/MS/MS analysis. In kind it is ADME, cell-based. As to conditions: u-937, 2.5 µM.
The test system of data set [7] is HuT78. The data set is described as follows: Drug metabolism in intact human HUT78 cells assessed as N-[2-(4-{6-Amino-5-[(2,4-difluorophenyl)carbonyl]-2-oxopyridin-1(2H)-yl}-3,5 difluorophenyl)ethyl]-L-leucine formation per million cells at 2.5 uM after 6 hrs by LC/MS/MS analysis. In kind it is ADME, cell-based. As to conditions: hut78, 6 h.
For data set [8], the target named is T2, Liver carboxylesterase 1. The data set is described as follows: Drug metabolism in human U937 cell lysate assessed as human CE1-mediated 5-(4-{6-Amino-5-[(2,4-difluorophenyl)carbonyl]-2-oxopyridiny1(2H)-yl}-3,5-difluorophenoxy)-L-norvaline formation at 2.5 uM after 10 to 80 mins by LC/MS/MS analysis. It counts as ADME, cell-based. Particulars: u-937, 2.5 µM.

The target in data set [9] is T2, Liver carboxylesterase 1. The experiment in a line: Drug metabolism in intact human U937 cells assessed as human CE1-mediated 5-(4-{6-Amino-5-[(2,4-difluorophenyl)carbonyl]-2-oxopyridiny1(2H)-yl}-3,5-difluorophenoxy)-L-norvaline formation per million cells at 2.5 uM after 6 hrs by LC/MS/MS analysis. Particulars: u-937, 6 h. It counts as ADME, cell-based.
Data set [10] concerns HuT78. The experiment in a line: Drug metabolism in human HUT78 cell lysate assessed as 5-(4-{6-Amino-5-[(2,4-difluorophenyl)carbonyl]-2-oxopyridiny1(2H)-yl}-3,5-difluorophenoxy)-L-norvaline formation at 2.5 uM after 10 to 80 mins by LC/MS/MS analysis. In kind it is ADME, cell-based. Particulars: hut78, 2.5 µM.
Data set [11] relates to HuT78. The experiment in a line: Drug metabolism in intact human HUT78 cells assessed as 5-(4-{6-Amino-5-[(2,4-difluorophenyl)carbonyl]-2-oxopyridiny1(2H)-yl}-3,5-difluorophenoxy)-L-norvaline formation per million cells at 2.5 uM after 6 hrs by LC/MS/MS analysis. It counts as ADME, cell-based. As to conditions: hut78, 6 h.

Mitogen-activated protein kinase 14, sequence (Q16539 whole entry): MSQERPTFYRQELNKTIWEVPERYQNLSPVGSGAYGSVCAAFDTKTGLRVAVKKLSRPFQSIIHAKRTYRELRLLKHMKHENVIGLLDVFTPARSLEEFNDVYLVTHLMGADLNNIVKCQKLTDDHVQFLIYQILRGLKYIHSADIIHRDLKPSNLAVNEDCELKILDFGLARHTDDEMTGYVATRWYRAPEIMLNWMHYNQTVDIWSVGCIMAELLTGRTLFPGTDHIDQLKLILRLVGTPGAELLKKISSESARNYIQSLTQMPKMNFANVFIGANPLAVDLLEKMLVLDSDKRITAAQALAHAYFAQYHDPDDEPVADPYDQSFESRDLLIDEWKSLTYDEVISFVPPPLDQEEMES

Regarding `Nc1c(C(=O)c2ccc(F)cc2F)ccc(=O)n1-c1c(F)cccc1F`, the IC50 at MAP kinase p38 [1] came to 10 nM; against MAP kinase p38 [2], 10 nM; in data set [3], 1.86 nM; in the data set with Blood it was 182 nM; in the data set with THP-1, 1.5 nM.

On to `CC(C)C[C@H](NCCc1cc(F)c(-n2c(N)c(C(=O)c3ccc(F)cc3F)ccc2=O)c(F)c1)C(=O)OC1CCCC1`, for which the Drug metabolism at Liver carboxylesterase 1 [4] was 606 ng; in the data set on HuT78 [5], less than 20 pg/mL/min; on Liver carboxylesterase 1 [6] it was 3036 pg/mL/min; in the data set on HuT78 [7] it was 0.5 ng. Moreover, the IC50 turned out to be 0.65 nM on MAP kinase p38 [1]; 73 nM against MAP kinase p38 [2]; 273 nM in data set [3]; 57.5 nM with Blood; 0.74 nM with THP-1.

Consider `Nc1c(C(=O)c2ccc(F)cc2F)ccc(=O)n1-c1c(F)cc(OCCC[C@H](N)C(=O)OC2CCCC2)cc1F`, for which the Drug metabolism worked out at 10613 pg/mL/min on Liver carboxylesterase 1 [8], 1407 ng at Liver carboxylesterase 1 [9], 14326 pg/mL/min in the data set on HuT78 [10] and 727 ng in the data set on HuT78 [11]. The IC50 against MAP kinase p38 [1] is 1 nM; against MAP kinase p38 [2], 1 nM; in [3], 6.5 nM; with Blood, 28.8 nM; in the data set with THP-1, 1.4 nM.

As to `CC(C)C[C@H](NCCc1cc(F)c(-n2c(N)c(C(=O)c3ccc(F)cc3F)ccc2=O)c(F)c1)C(=O)O`, it took 1.2 nM to reach half-maximal inhibition in data set [3] (IC50).

`Nc1c(C(=O)c2ccc(F)cc2F)ccc(=O)n1-c1c(F)cc(OCCC[C@H](N)C(=O)O)cc1F` displayed an IC50 in [3] of 1 nM.
